Where a name gives a salt, the structure may show the parent alone. Where only a bound is given, the exact number is not on record here.

This test concerns the target BRD4(BD1) (Homo sapiens, UniProt O60885). The experiment in a line: HTRF assay, BRD4(BD1)/histone peptide interaction. The test is classed as binding. More on the design: made in house. The note with it: HTRF; triplicates; NA = IC50 > maximal concentration of compound used. How it is done: HTRF assays were performed in white 384 Well Small Volume™ HiBase Polystyrene Microplates (Greiner) with a total working volume of 20 μL. Compounds were dispensed, with 100 nL per well (0.5% final DMSO), from a concentration stock of 10 mM in 100% DMSO and with serial DMSO dilutions, using an Echo® 550 robot from the Access Labcyte platform (Labcyte) and based on the transfer of liquid by acoustic wave. Then, 19.5 μL of buffer is added, using a Multidrop Combi (Thermo Fisher Scientific). […] All HTRF reagents (donor and acceptor) were purchased from CisBio Bioassays and reconstituted according to the supplier protocols. The peptide was purchased from Genic Bio Synthetic. The BRD4(1) protein was produced and purified in the laboratory.
Percentage of inhibition was calculated using the following equation: % inhibition=[(compound signal)−(min signal)]/[(max signal)−(min signal)]*100, where ‘max signal’ is the signal ratio with the compound vehicle alone (DMSO) and ‘min signal’ the signal ratio without peptide.
Selectivity profiles of bromodomain inhibitors were performed as described in HTRF screen section. […] HTRF detection reagents (EPIgeneous™ Binding Domain kits) were purchased from Cisbio Bioassays and used according to supplier's protocol. GST tagged bromodomain proteins were purchased from BPS Bioscience and histone peptide from Genic Bio Synthetic.
With `COC(=O)C1CCC(CNS(=O)(=O)c2ccc3c(c2)CCCC(=O)N3)CC1` (centres unmarked) [Compound 1c, Methyl 4-((2-oxo-2,3,4,5-tetrahydro-1H-benzo[b]azepine-7-sulfonamido)methyl)cyclohexanecarboxylate], the IC50 was found to be 53 µM.

The compound `O=C1CCCc2cc(S(=O)(=O)NCC3CCC(C(=O)NCc4cccs4)CC3)ccc2N1` (centres unmarked) [Compound 5a] displayed a 50% inhibitory concentration (IC50) of more than 50 µM.

Turning to `O=C1CCCc2cc(S(=O)(=O)NCC3CCC(C(=O)NCc4ccccn4)CC3)ccc2N1` (centres unmarked) [Compound 6a], the half-maximal inhibitory concentration (IC50) is 29 µM.

As to `O=C1CCCc2cc(S(=O)(=O)NCC3CCC(C(=O)NCc4ccncc4)CC3)ccc2N1` (centres unmarked) [Compound 6c], the IC50 was 30 µM.

Take `O=C1CCCc2cc(S(=O)(=O)NCC3CCC(C(=O)NCc4cccc(O)c4)CC3)ccc2N1` (centres unmarked) [Compound 7c]: the IC50 was 23 µM.

Compound `Cc1noc(C)c1CNC(=O)C1CCC(CNS(=O)(=O)c2ccc3c(c2)CCCC(=O)N3)CC1` (centres unmarked) [Compound 8a] yielded an IC50 of 22 µM.

With `CS(=O)(=O)NCC1CCC(C(=O)NCCc2cccs2)CC1` (centres unmarked) [Compound 8c], the IC50 was 18 µM.

Compound `O=C1CCCc2cc(S(=O)(=O)N3CCC(C(=O)NCc4cccs4)CC3)ccc2N1` [Compound 11b] showed an IC50 of more than 50 µM.

For the compound `O=C1CCCc2cc(S(=O)(=O)N3CCC(C(=O)NCCc4cccs4)CC3)ccc2N1` [Compound 11c], the IC50 was more than 50 µM.

On to `O=C1CCCc2cc(S(=O)(=O)NCc3ccc(C(=O)NCc4ccccn4)cc3)ccc2N1` [Compound 14a], for which the IC50 is more than 25 µM.

Compound `O=C1CCCc2cc(S(=O)(=O)NCc3ccc(C(=O)NCc4cccnc4)cc3)ccc2N1` [Compound 14b] displayed an IC50 of more than 25 µM.

With `O=C1CCCc2cc(S(=O)(=O)NCc3ccc(C(=O)NCc4ccncc4)cc3)ccc2N1` [Compound 14c], the IC50 is more than 25 µM.

With `O=C1CCCc2cc(S(=O)(=O)NCc3ccc(C(=O)NCc4cccc(O)c4)cc3)ccc2N1` [Compound 15b], half-maximal inhibition (IC50) required 46 µM.

For `CCn1cnc2c1c(=O)[nH]c(=O)n2Cc1ccc(CN)cc1` [Compound 20a, 3-(4-(aminomethyl)benzyl)-7-ethyl-1H-purine-2,6(3H,7H)-dione trifluoroacetic salt], the IC50 was 27 µM.

`CCn1cnc2c1c(=O)[nH]c(=O)n2Cc1ccc(CNS(C)(=O)=O)cc1` [Compound 20b] had a concentration for half-maximal inhibition (IC50) of 4.3 µM.

For `CCCS(=O)(=O)NCc1ccc(Cn2c(=O)[nH]c(=O)c3c2ncn3CC)cc1` [Compound 20c], inhibition was half-maximal at 3.6 µM (IC50).

In turn, `CCn1cnc2c1c(=O)[nH]c(=O)n2Cc1ccc(CNS(=O)(=O)CC(C)C)cc1` [Compound 21a] registered an IC50 of 2.9 µM.

In the case of `CCn1cnc2c1c(=O)[nH]c(=O)n2Cc1ccc(CNS(=O)(=O)CCOC)cc1` [Compound 21b], the IC50 is 5.2 µM.

`CCn1cnc2c1c(=O)[nH]c(=O)n2Cc1ccc(CNS(=O)(=O)CC2CCCC2)cc1` [Compound 21c] returned an IC50 of 1.4 µM.

The compound `CCn1cnc2c1c(=O)[nH]c(=O)n2Cc1ccc(CNS(=O)(=O)CCN2CCOCC2)cc1` [Compound 22a] displayed an IC50 of 4.5 µM.

As for `CCn1cnc2c1c(=O)[nH]c(=O)n2Cc1ccc(CNS(=O)(=O)CCCN2CCOCC2)cc1` [Compound 22b], it took 7.5 µM to reach half-maximal inhibition (IC50).

The compound `CCn1cnc2c1c(=O)[nH]c(=O)n2Cc1ccc(CNS(=O)(=O)CCc2ccccc2)cc1` [Compound 22c] showed an IC50 of 1.4 µM.

In the case of `CCn1cnc2c1c(=O)[nH]c(=O)n2Cc1ccc(CNS(=O)(=O)c2cn(C)cn2)cc1` [Compound 23a], the IC50 came to 3.5 µM.

Compound `CCn1cnc2c1c(=O)[nH]c(=O)n2Cc1ccc(CNS(=O)(=O)c2cn(C)c(C)n2)cc1` [Compound 23b] came in with an IC50 of 1.7 µM.

In turn, `CCc1nc(S(=O)(=O)NCc2ccc(Cn3c(=O)[nH]c(=O)c4c3ncn4CC)cc2)cn1C` [Compound 23c] displayed an IC50 of 1.3 µM.

Regarding `CCn1cnc2c1c(=O)[nH]c(=O)n2Cc1ccc(CNS(=O)(=O)c2ccn(C(C)C)n2)cc1` [Compound 24a], the half-inhibitory concentration (IC50) is 2.7 µM.

`CCn1cnc2c1c(=O)[nH]c(=O)n2Cc1ccc(CNS(=O)(=O)c2cc(C)ns2)cc1` [Compound 24c] came in with an IC50 of 1.7 µM.

Compound `CCn1cnc2c1c(=O)[nH]c(=O)n2Cc1ccc(CNS(=O)(=O)c2ccc3oncc3c2)cc1` [Compound 26a] yielded a half-maximal inhibitory concentration (IC50) of 2.2 µM.

`CCn1cnc2c1c(=O)[nH]c(=O)n2Cc1ccc(CNS(=O)(=O)c2ccc3c(c2)n(C)c(=O)n3C)cc1` [Compound 26b] yielded a 50% inhibitory concentration (IC50) of 0.769 µM.

Take `CCn1cnc2c1c(=O)[nH]c(=O)n2Cc1ccc(CNS(=O)(=O)c2ccc3c(c2)CCN3C(C)=O)cc1` [Compound 26c]: the half-inhibitory concentration (IC50) was found to be 0.817 µM.

`CCn1cnc2c1c(=O)[nH]c(=O)n2Cc1ccc(CNS(=O)(=O)c2cc(-c3ccno3)ccc2C)cc1` [Compound 27a]: the IC50 came to 1.3 µM.

Regarding `CCn1cnc2c1c(=O)[nH]c(=O)n2Cc1ccc(CNS(=O)(=O)c2ccc([N+](=O)[O-])cc2)cc1` [Compound 28a], the IC50 was determined as 1.3 µM.

In turn, `CCn1cnc2c1c(=O)[nH]c(=O)n2Cc1ccc(CNS(=O)(=O)c2ccc(N)cc2)cc1` [Compound 28b] came in with an IC50 of 0.729 µM.

With `CCn1cnc2c1c(=O)[nH]c(=O)n2Cc1ccc(CNS(=O)(=O)c2ccc(C)cc2)cc1` [Compound 28c], it took 0.687 µM to reach half-maximal inhibition (IC50).

Compound `CCn1cnc2c1c(=O)[nH]c(=O)n2Cc1ccc(CNS(=O)(=O)c2ccccc2)cc1` [Compound 29a] displayed an IC50 of 1.6 µM.

With `CCn1cnc2c1c(=O)[nH]c(=O)n2Cc1ccc(CNS(=O)(=O)c2ccc(-c3coc(C)n3)cc2)cc1` [Compound 30a], inhibition was half-maximal at 0.6 µM (IC50).

As to `CCn1cnc2c1c(=O)[nH]c(=O)n2Cc1ccc(CNS(=O)(=O)c2ccc(OC)cc2)cc1` [Compound 30b], the half-inhibitory concentration (IC50) came out at 0.687 µM.

Compound `CCn1cnc2c1c(=O)[nH]c(=O)n2Cc1ccc(CNS(=O)(=O)c2cccc(NC(C)=O)c2)cc1` [Compound 31b] registered an IC50 of 0.723 µM.

With `CCn1cnc2c1c(=O)[nH]c(=O)n2Cc1ccc(CNC(=O)CCC2CC2)cc1` [Compound 33b], the IC50 was 4.7 µM.

As to `CCCn1cc(C(=O)NCc2ccc(Cn3c(=O)[nH]c(=O)c4c3ncn4CC)cc2)cn1` [Compound 33c, N-(4-((7-ethyl-2,6-dioxo-1H-purin-3(2H,6H,7H)-yl)methyl)benzyl)-1-propyl-1H-pyrazole-4-carboxamide], half-maximal inhibition (IC50) was put at 4.5 µM.

In the case of `CCn1cnc2c1c(=O)[nH]c(=O)n2Cc1ccc(CNC(=O)C2CCN(C)C2)cc1` (centres unmarked) [Compound 34a], the IC50 was 4.3 µM.

Take `CCCC(=O)N1CCC(C(=O)NCc2ccc(Cn3c(=O)[nH]c(=O)c4c3ncn4CC)cc2)CC1` [Compound 34b]: the concentration for half-maximal inhibition (IC50) amounted to 2.8 µM.

Compound `CCn1cnc2c1c(=O)[nH]c(=O)n2Cc1ccc(CNC(=O)c2ccc(N3CCc4ccccc4C3)cc2)cc1` [Compound 34c] yielded an IC50 of 0.749 µM.

`CCn1cnc2c1c(=O)[nH]c(=O)n2Cc1ccc(CNC(=O)C2CCCC(O)C2)cc1` (centres unmarked) [Compound 35a] gave a half-maximal inhibitory concentration (IC50) of 2.8 µM.

Turning to `CCn1cnc2c1c(=O)[nH]c(=O)n2Cc1ccc(CNC(=O)C2CCC(CO)CC2)cc1` (centres unmarked) [Compound 35b], the IC50 is 7 µM.

Compound `CCn1cnc2c1c(=O)[nH]c(=O)n2Cc1ccc(CNC(=O)[C@H](O)c2ccc(C)cc2)cc1` [Compound 35c] returned an IC50 of 1.8 µM.

For `CCn1cnc2c1c(=O)[nH]c(=O)n2Cc1ccc(CNC(=O)CCC(C)C)cc1` [Compound 36a], the half-maximal inhibitory concentration (IC50) is 2.2 µM.

With `CCn1cnc2c1c(=O)[nH]c(=O)n2Cc1ccc(CNC(=O)c2ccc(Oc3ccccc3)cc2)cc1` [Compound 37a], half-maximal inhibition (IC50) required 2 µM.

Compound `CCn1cnc2c1c(=O)[nH]c(=O)n2Cc1ccc(CNC(=O)C(NC(=O)OC(C)(C)C)c2ccc(C)cc2)cc1` (centres unmarked) [Compound 37b] displayed an IC50 of 4.9 µM.

In turn, `CCn1cnc2c1c(=O)[nH]c(=O)n2Cc1ccc(CNC(=O)[C@@H]2C[C@@H](c3ccccc3)CN2C(=O)OC(C)(C)C)cc1` [Compound 38a] yielded a concentration for half-maximal inhibition (IC50) of 1.7 µM.

For `CCn1cnc2c1c(=O)[nH]c(=O)n2Cc1ccc(CNC(=O)[C@H]2CC[C@H](CNC(=O)OC(C)(C)C)CC2)cc1` [Compound 38b], half-maximal inhibition (IC50) required 8.1 µM.

Regarding `CCn1cnc2c1c(=O)[nH]c(=O)n2Cc1ccc(CNC(=O)[C@H](CC2CC2)NC(=O)OC(C)(C)C)cc1` [Compound 38c], the IC50 is 5.5 µM.

As to `CCn1cnc2c1c(=O)[nH]c(=O)n2Cc1ccc(CNC(=O)[C@@H]2CCCN(C(=O)OC(C)(C)C)C2)cc1` [Compound 39a], the midpoint of inhibition, the IC50, lay at 6.8 µM.

Turning to `CCC[C@H](NC(=O)OC(C)(C)C)C(=O)NCc1ccc(Cn2c(=O)[nH]c(=O)c3c2ncn3CC)cc1` [Compound 39b], the IC50 was determined as 2.3 µM.

For `CCn1cnc2c1c(=O)[nH]c(=O)n2Cc1ccc(CNC(=O)[C@@H]2CCC[C@H](NC(=O)OC(C)(C)C)C2)cc1` [Compound 39c], the IC50 turned out to be 1.5 µM.

`CCn1cnc2c1c(=O)[nH]c(=O)n2Cc1ccc(CNC(=O)C(N)c2ccc(C)cc2)cc1` (centres unmarked) [Compound 40a] displayed an IC50 of 18 µM.

`CCC[C@@H](N)C(=O)NCc1ccc(Cn2c(=O)[nH]c(=O)c3c2ncn3CC)cc1` [Compound 40b] came in with an IC50 of 32 µM.

`CCn1cnc2c1c(=O)[nH]c(=O)n2Cc1ccc(CNC(=O)[C@@H]2C[C@@H](c3ccccc3)CN2)cc1` [Compound 40c] yielded an IC50 of 13 µM.

As to `CCn1cnc2c1c(=O)[nH]c(=O)n2Cc1ccc(CNC(=O)[C@H]2CC[C@H](CN)CC2)cc1` [Compound 41a], the IC50 was more than 50 µM.

As a reminder, the IC50 is the concentration that inhibits the measured activity by half. Lower therefore signals greater potency in that assay.

The values above are taken from US11180510B2, “Xanthine derivatives and uses thereof as inhibitors of bromodomains of BET proteins” (Centre national de la recherche scientifique, priority 2017, dated 2021).
